Peptide text beside a SMILES is read from it. * marks the point of attachment. Octanoyl = CCCCCCCC(=O)*

In one experiment the target is T1, rat GHS-receptor (GHR-R) (Rattus norvegicus, UniProt O08725).
T1 construct: A full-length cDNA for rat GHR-R was obtained by RT-PCR; expressed in transfected cells
T1 sequence (O08725 whole entry): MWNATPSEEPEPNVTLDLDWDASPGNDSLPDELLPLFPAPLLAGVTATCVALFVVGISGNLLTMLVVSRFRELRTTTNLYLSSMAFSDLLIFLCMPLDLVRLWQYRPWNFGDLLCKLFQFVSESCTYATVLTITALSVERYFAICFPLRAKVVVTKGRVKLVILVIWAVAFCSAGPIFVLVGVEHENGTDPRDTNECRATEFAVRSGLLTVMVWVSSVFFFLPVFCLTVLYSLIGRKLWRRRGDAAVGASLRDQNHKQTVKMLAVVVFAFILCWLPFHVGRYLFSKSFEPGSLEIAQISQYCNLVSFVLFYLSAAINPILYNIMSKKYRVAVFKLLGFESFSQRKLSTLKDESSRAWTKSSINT
The experiment is described as follows: Ca-releasing activity (increase in intracellular calcium) in CHO-GHSR62 cells, FLIPR. The following applies: CHO-GHSR62 cells. It counts as cell-based. The source says:
To assay an increase in the intracellular calcium ion concentration (Ca-releasing activity) occurring upon binding of a GH secretagogue (GHS) to GHS-receptor (GHR-R), a cell strain expressing rat GHR-R was created in the following manner. A full-length cDNA for rat GHR-R was obtained by RT-PCR (reverse transcriptase-polymerase chain reaction) where a cDNA derived from rat brain was used as template. From the nucleotide sequence of known rat GHR-R [K. K. Mckee, et al, Molecular Endocrinology 11, 415-423 (1997)], sense and antisense primers consisting of the following nucleotide sequences were synthesized.
The amplified cDNA was ligated to vector pcDNAIII (Invitrogen) to construct expression vector GHSR-pcDNAIII. CHO cells were transformed via the expression vector, and the transformed cells stably expressing GHR-R were selected in a medium containing 1 μg/ml G418. […] A change in the intracellular calcium ion concentration (Ca-releasing activity) was measured by an FLIPR system (Molecular Device). Before this measurement, 4×10^4 CHO-GHSR62 cells were put to a 96-well microplate with black wall (Corning Co., Ltd) and cultured for 12 to 15 hours. Then, the cells were incubated with 4 μM fluorescent Fluo4 (Molecular Probe Co., Ltd) for 1 hour and washed four times with Hank's BSS (Hank's Balanced Salt Solution) containing 20 mM Hepes ([N-2-hydroxyethyl]-piperazine-N-[2-ethanesulfonic acid]) and 2.5 mM probenecid, and the Ca-releasing activity was assayed by adding a sample and measuring a change in the fluorescence.
Peptide fragments obtained by partially digested the rat- and human-derived ghrelins by various proteases, or chemically synthesized peptides, were examined for their Ca releasing activity in order to determine a core amino acid sequence and the optimum chain length of a modifying fatty acid necessary for Ca-releasing activity.
The Ca-increasing activities of the ghrelin derivative peptide-type compounds synthesized in Example 10 and the natural ghrelin peptide were measured in the same manner as in Example 1.
In this examination, the intracellular Ca-releasing activity in CHO cells expressing rat GSH receptor was used as the indicator.
A general note: A change in cytosolic calcium serves as a functional read-out for many receptors and channels.
With “GHRH: GH releasing hormone, expressed as GRF in FIG. 3a [reference compound]”, the “Ca-releasing activity (in words)” value is given as “did not exhibit the Ca-releasing activity”.

The experiment is the same for the next values; noted with them: CHO-GHSR62 cells (CHO cells expressing rat GHS receptor), FLIPR; read-out: Ca-releasing activity EC50.
On to `CC(C)C[C@H](NC(=O)[C@H](CCCCN)NC(=O)[C@H](C)NC(=O)[C@@H]1CCCN1C(=O)[C@@H]1CCCN1C(=O)[C@H](CCCCN)NC(=O)[C@H](CCCCN)NC(=O)[C@H](CO)NC(=O)[C@H](CCC(=O)O)NC(=O)[C@H](CCCCN)NC(=O)[C@H](CCCNC(=N)N)NC(=O)[C@H](CCC(N)=O)NC(=O)[C@H](CCC(N)=O)NC(=O)[C@@H](NC(=O)[C@H](CCCNC(=N)N)NC(=O)[C@H](CCC(N)=O)NC(=O)[C@H](Cc1c[nH]cn1)NC(=O)[C@H](CCC(=O)O)NC(=O)[C@@H]1CCCN1C(=O)[C@H](CO)NC(=O)[C@H](CC(C)C)NC(=O)[C@H](Cc1ccccc1)NC(=O)[C@H](CCCCN)NC(=O)[C@H](CO)NC(=O)CN)C(C)C)C(=O)N[C@@H](CCC(N)=O)C(=O)N1CCC[C@H]1C(=O)N[C@@H](CCCNC(=N)N)C(=O)O` [Compound 72, [Lys^3]-hGhrelin], for which the half-maximal effective concentration (EC50) – broadly, the concentration needed to bring the measured effect to its halfway point – turned out to be 120 nM.

For `CCCCCCCNC(=O)C[C@H](NC(=O)[C@H](CO)NC(=O)CN)C(=O)N[C@@H](Cc1ccccc1)C(=O)N[C@@H](CC(C)C)C(=O)N[C@@H](CO)C(=O)N1CCC[C@H]1C(=O)N[C@@H](CCC(=O)O)C(=O)N[C@@H](Cc1c[nH]cn1)C(=O)N[C@@H](CCC(N)=O)C(=O)N[C@@H](CCCNC(=N)N)C(=O)N[C@H](C(=O)N[C@@H](CCC(N)=O)C(=O)N[C@@H](CCC(N)=O)C(=O)N[C@@H](CCCNC(=N)N)C(=O)N[C@@H](CCCCN)C(=O)N[C@@H](CCC(=O)O)C(=O)N[C@@H](CO)C(=O)N[C@@H](CCCCN)C(=O)N[C@@H](CCCCN)C(=O)N1CCC[C@H]1C(=O)N1CCC[C@H]1C(=O)N[C@@H](C)C(=O)N[C@@H](CCCCN)C(=O)N[C@@H](CC(C)C)C(=O)N[C@@H](CCC(N)=O)C(=O)N1CCC[C@H]1C(=O)N[C@@H](CCCNC(=N)N)C(=O)O)C(C)C` [Compound 55, [Asp^3(NH-Heptyl)]-hGhrelin], the EC50 was found to be 11 nM.

On to `CCCCCCCCOC[C@@H](NC(=O)[C@H](CO)NC(=O)CN)C(=O)N[C@@H](Cc1ccccc1)C(=O)N[C@@H](CC(C)C)C(=O)N[C@@H](CO)C(=O)N1CCC[C@H]1C(N)=O` [Compound 52, [^DSer^3(Octyl)]-Ghrelin (1-7)-amide], for which the EC50 is greater than 10000 nM.

For `CCCCCCCCOC[C@H](NC(=O)CCCCN)C(=O)N[C@@H](Cc1ccccc1)C(=O)N[C@@H](CCCCN)C(N)=O` [Compound 76, [N-Aminopentanoyl, Ser^3(Octyl), Lys^5]-Ghrelin (3-5)-amide], the EC50 is 12 nM.

Regarding `CC(C)C[C@H](NC(=O)[C@H](CCCCN)NC(=O)[C@H](C)NC(=O)[C@@H]1CCCN1C(=O)[C@@H]1CCCN1C(=O)[C@H](CCCCN)NC(=O)[C@H](CCCCN)NC(=O)[C@H](CO)NC(=O)[C@H](CCC(=O)O)NC(=O)[C@H](CCCCN)NC(=O)[C@H](CCCNC(=N)N)NC(=O)[C@H](CCC(N)=O)NC(=O)[C@H](CCC(N)=O)NC(=O)[C@@H](NC(=O)[C@H](CCCNC(=N)N)NC(=O)[C@H](CCC(N)=O)NC(=O)[C@H](Cc1c[nH]cn1)NC(=O)[C@H](CCC(=O)O)NC(=O)[C@@H]1CCCN1C(=O)[C@H](CO)NC(=O)[C@H](CC(C)C)NC(=O)[C@H](Cc1ccccc1)NC(=O)[C@H](COCc1ccccc1)NC(=O)[C@H](CO)NC(=O)CN)C(C)C)C(=O)N[C@@H](CCC(N)=O)C(=O)N1CCC[C@H]1C(=O)N[C@@H](CCCNC(=N)N)C(=O)O` [Compound 67, [Ser^3(Bzl)]-hGhrelin], the concentration giving a half-maximal response (EC50) came to 7.6 nM.

As to `CCCCCCCC(=O)OC[C@H](NC(=O)[C@H](CO)NC(=O)CN)C(=O)N[C@@H](Cc1ccccc1)C(=O)N[C@@H](CC(C)C)C(=O)N[C@@H](CO)C(=O)N1CCC[C@H]1C(=O)N[C@@H](CCC(=O)O)C(=O)N[C@@H](Cc1c[nH]cn1)C(=O)N[C@@H](CCC(N)=O)C(=O)N[C@@H](CCCCN)C(=O)N[C@@H](C)C(=O)N[C@@H](CCC(N)=O)C(=O)N[C@@H](CCCNC(=N)N)C(=O)N[C@@H](CCCCN)C(=O)N[C@@H](CCC(=O)O)C(=O)N[C@@H](CO)C(=O)N[C@@H](CCCCN)C(=O)N[C@@H](CCCCN)C(=O)N1CCC[C@H]1C(=O)N1CCC[C@H]1C(=O)N[C@@H](C)C(=O)N[C@@H](CCCCN)C(=O)N[C@@H](CC(C)C)C(=O)N[C@@H](CCC(N)=O)C(=O)N1CCC[C@H]1C(=O)N[C@@H](CCCNC(=N)N)C(=O)O` [Compound 22, [des Gln^14]-rGhrerin] (H-GSS(Octanoyl)FLSPEHQKAQRKESKKPPAKLQPR-OH; N-terminus and C-terminus assumed), the concentration for a half-maximal effect (EC50) stood at 1.5 nM.

Consider `CC(C)C[C@H](NC(=O)[C@H](CCCCN)NC(=O)[C@H](C)NC(=O)[C@@H]1CCCN1C(=O)[C@@H]1CCCN1C(=O)[C@H](CCCCN)NC(=O)[C@H](CCCCN)NC(=O)[C@H](CO)NC(=O)[C@H](CCC(=O)O)NC(=O)[C@H](CCCCN)NC(=O)[C@H](CCCNC(=N)N)NC(=O)[C@H](CCC(N)=O)NC(=O)[C@H](CCC(N)=O)NC(=O)[C@@H](NC(=O)[C@H](CCCNC(=N)N)NC(=O)[C@H](CCC(N)=O)NC(=O)[C@H](Cc1c[nH]cn1)NC(=O)[C@H](CCC(=O)O)NC(=O)[C@@H]1CCCN1C(=O)[C@H](CO)NC(=O)[C@H](CC(C)C)NC(=O)[C@H](Cc1ccccc1)NC(=O)[C@H](Cc1c[nH]c2ccccc12)NC(=O)[C@H](CO)NC(=O)CN)C(C)C)C(=O)N[C@@H](CCC(N)=O)C(=O)N1CCC[C@H]1C(=O)N[C@@H](CCCNC(=N)N)C(=O)O` [Compound 62, [Trp^3]-hGhrelin], for which the EC50 was determined as 31 nM.

Consider `CCCCCCCC(=O)OC[C@H](NC(=O)[C@H](CO)NC(=O)CNC(=O)[C@@H](N)Cc1ccc(O)cc1)C(=O)N[C@@H](Cc1ccccc1)C(=O)N[C@@H](CC(C)C)C(=O)N[C@@H](CO)C(=O)N1CCC[C@H]1C(=O)N[C@@H](CCC(=O)O)C(=O)N[C@@H](Cc1c[nH]cn1)C(=O)N[C@@H](CCC(N)=O)C(=O)N[C@@H](CCCCN)C(=O)N[C@@H](C)C(=O)N[C@@H](CCC(N)=O)C(=O)N[C@@H](CCC(N)=O)C(=O)N[C@@H](CCCNC(=N)N)C(=O)N[C@@H](CCCCN)C(=O)N[C@@H](CCC(=O)O)C(=O)N[C@@H](CO)C(=O)N[C@@H](CCCCN)C(=O)N[C@@H](CCCCN)C(=O)N1CCC[C@H]1C(=O)N1CCC[C@H]1C(=O)N[C@@H](C)C(=O)N[C@@H](CCCCN)C(=O)N[C@@H](CC(C)C)C(=O)N[C@@H](CCC(N)=O)C(=O)N1CCC[C@H]1C(=O)N[C@@H](CCCNC(=N)N)C(=O)O` [Compound 42, [N-Tyr]-rGhrelin], for which the concentration giving a half-maximal response (EC50) stood at 120 nM.

`CCCCCCCC(=O)OC[C@H](NC(=O)[C@H](Cc1c[nH]cn1)NC(=O)CN)C(=O)N[C@@H](Cc1ccccc1)C(=O)N[C@@H](CC(C)C)C(=O)N[C@@H](CO)C(=O)N1CCC[C@H]1C(N)=O` [Compound 45, [His^2]-Ghrelin (1-7)-amide] (H-GHS(Octanoyl)FLSP-NH2): the EC50 was determined as 35 nM.

Consider `CCCCCCCC(=O)OC[C@H](NC(=O)[C@H](CO)NC(=O)CN)C(=O)N[C@@H](Cc1ccccc1)C(=O)N[C@@H](CC(C)C)C(=O)N[C@@H](CO)C(=O)N[C@@H](CCCCN)C(N)=O` [Compound 75, [Lys^7]-Ghrelin (1-7)-amide] (H-GSS(Octanoyl)FLSK-NH2), for which the 50% effective concentration (EC50) is 11 nM.

As to `CCCCCCCC(=O)OC[C@H](NC(=O)[C@H](CO)NC(=O)CN)C(=O)N[C@@H](Cc1ccccc1)C(=O)N[C@@H](CC(C)C)C(=O)N[C@@H](CO)C(N)=O` [Compound 30, Ghrelin (1-6)-amide] (H-GSS(Octanoyl)FLS-NH2), the 50% effective concentration (EC50) came out at 4.8 nM.

The same experiment, now with this note: CHO-GHSR62 cells; listed as Ghrelin-27.
Take `CCCCCCCC(=O)OC[C@H](NC(=O)[C@H](CO)NC(=O)CN)C(=O)N[C@@H](Cc1ccccc1)C(=O)N[C@@H](CC(C)C)C(=O)N[C@@H](CO)C(=O)N1CCC[C@H]1C(=O)N[C@@H](CCC(=O)O)C(=O)N[C@@H](Cc1c[nH]cn1)C(=O)N[C@@H](CCC(N)=O)C(=O)N[C@@H](CCCCN)C(=O)N[C@@H](C)C(=O)N[C@@H](CCC(N)=O)C(=O)N[C@@H](CCCNC(=N)N)C(=O)N[C@@H](CCCCN)C(=O)N[C@@H](CCC(=O)O)C(=O)N[C@@H](CO)C(=O)N[C@@H](CCCCN)C(=O)N[C@@H](CCCCN)C(=O)N1CCC[C@H]1C(=O)N1CCC[C@H]1C(=O)N[C@@H](C)C(=O)N[C@@H](CCCCN)C(=O)N[C@@H](CC(C)C)C(=O)N[C@@H](CCC(N)=O)C(=O)N1CCC[C@H]1C(=O)N[C@@H](CCCNC(=N)N)C(=O)O` [Compound 22, [des Gln^14]-rGhrerin] (H-GSS(Octanoyl)FLSPEHQKAQRKESKKPPAKLQPR-OH; N-terminus and C-terminus assumed): the “Ca-releasing activity (in words)” value is recorded as “completely the same Ca-releasing activity”.

Source of the values: patent US7385026B1, “Modified ghrelin polypeptides” (priority 1999, dated 2008).
